Values joined by “and” are separate entries in the source; they are usually repeats but may differ in a detail not shown here. Equal entries are not always repeated. Where two headings read alike, the source gives them in different places.
Tests used:
SMARCA2 = SMARCA2 (Homo sapiens, UniProt P51531); experiment: SMARCA2 capillary electrophoresis protein assay in other cell lines (A549, NCI-H1568, HCT116, LU99, HCC-364, HCT-15, HCC4006, SK-N-AS); format: cell-based; set-up: endogenous in cells; host or cells: RKO, NCI-H1568, A549, HCT116, LU99, HCC-364, HCT-15, HCC4006, SK-N-AS
Method: 130,000–200,000 cells were seeded in 24-well plates and incubated until settled down or overnight. Compounds were dissolved in DMSO and added to cells in indicated concentrations using a digital dispenser following an optional media change. Cells were incubated for 4 or 18 h as indicated. For SMARCA2/4 half-life determination, 150,000 or 200,000 cells were seeded in 24-well plates. The next day, 50 µg/ml cycloheximide (Sigma) was added and cells were incubated for 1–24 h. For SMARCA2/4 re-synthesis measurements, 200,000 cells were seeded in 24-well plates. The next day, 100 nM compound 6 was added for 4 h to degrade SMARCA2/4, and a sample was taken as baseline for normalisation. To allow re-synthesis, a VHL binder (compound 32, 25 or 50 µM) was then added for 3 or 24 h. Medium was removed, cells were washed with PBS and lysed with 80 µl Lysis Buffer (MSD Tris Lysis Buffer (#R60TX-2) + Halt Inhibitor Cocktail (100x) + Benzonase 0.5 µL/ml). Samples were frozen at −80 °C and thawed at room temperature before use. Samples were transferred to a V-bottom plate and insoluble debris was pelleted by centrifugation for 5 min at maximum speed. The supernatant was transferred to a fresh plate. Master Mix and Ladder were prepared according to manufacturer’s instructions for 12–230 kDa Wes Separation Module, 8 × 25 capillary cartridges, Protein Simple #SM-W004 with Anti-Rabbit Detection Module for Wes, Peggy Sue or Sally Sue, Protein Simple #DM-001. 4.8 µl lysate were mixed with 1.2 µl Master Mix to achieve a protein concentration of ~0.5 µg/µl. Antibodies were diluted in Antibody Diluent II (SMARCA2 Sigma #HPA029981 RRID:AB_10602406 1:25–100, SMARCA4 Cell Signalling #49360 clone D1Q7F RRID:AB_2728743 1:15–120 or Abcam #ab110641 clone EPNCIR111A RRID:AB_10861578 1:60, GAPDH Abcam #ab9485 RRID:AB_307275 1:250). Wes plates were prepared and run according to manufacturer’s instructions. Proteins were quantified with accompanying Compass Software. SMARCA2/4 protein levels were normalised to GAPDH. […] Where applicable, curves were fitted using a 4-parametric logistic model.

Solubility testing = format: physicochemical; details: buffer, kinetic from dmso stock
Method: Dilution into a 1:1 mixture of acetonitrile and water was used as reference. After 24 h, the incubations were filtrated, and the filtrate was analyzed by LC-UV.

[1] = molecular target: VCB: PROTAC: SMARCA4^BD ternary complex (Homo sapiens, UniProt P40337+P51532); experiment: SPR ternary complex measurement, VCB immobilised, 10 µM SMARCA4^BD present; format: binding; set-up: P51532, residues 1448–1569 with additional N-terminal SM residues; His6 (TEV site) (N, cleaved yes); GST (TEV site) (N, cleaved yes); made in house; host or cells: SMARCA4^BD: Escherichia coli BL21(DE3); details: for Kd: SPR
Method: SPR data were acquired on Biacore 8K or T200 instruments (Cytiva). Target proteins were immobilised at 25 °C on CM5 chips by amine coupling (EDC/NHS, Cytiva) in HBS-P+ running buffer (pH 7.4), containing 2 mM TCEP. […] The reference surface was subsequently deactivated using 1 M ethanolamine. […] Biotinylated VCB was prepared as previously described[27]: in brief, the complex was mixed 1:1 with EZ-Link NHS–PEG4–biotin (Thermo Scientific) and incubated at room temperature for 1 h. Unreacted NHS-biotin was removed using a PD-10 desalting column (Cytiva) into 20 mM HEPES, pH 7.5, 150 mM sodium chloride and 1 mM DTT. The reference surface was generated by deactivating the EDC/NHS-treated surface with 1 M ethanolamine. All interaction experiments were done at 6 °C in running buffer (20 mM TRIS, pH 8.3, 150 mM potassium chloride, 2 mM magnesium chloride, 2 mM TCEP, 0.005% TWEEN 20, 1% dimethyl sulfoxide). For ternary complex measurements, a sensor chip surface with VCB immobilised was used (preparation as described above). Experiments were run in dual-inject mode with 10 µM SMARCA present during the injection and dissociation phase. Sensorgrams from reference surfaces and blank injections were subtracted from the raw data prior to data analysis using Biacore Insight software. Affinity and binding kinetic parameters were determined by global fitting using the 1:1 interaction model with a term for mass-transport included.

Plasma protein binding = format: in vitro ADME
Method: Binding of compound to plasma proteins was determined by equilibrium dialysis of 3 µmol/L compound in plasma (or plasma dilutions in PBS) against PBS through an 8 kDa molecular-weight cut-off cellulose membrane (RED device, Thermo Fisher) at 37 °C for 5 h. After incubation, aliquots from donor and acceptor compartments were precipitated and the concentrations in the supernatants were determined by quantitative LC-MS/MS. Calibration and quality control samples were prepared using blank plasma and internal standard. The fraction unbound was calculated as ratio of the compound concentration in the acceptor compartment to the concentration in the donor compartment.

[2] = SK-N-AS_SM2, four-parameter fit

Chain of SMARCA2 (P51531 whole entry): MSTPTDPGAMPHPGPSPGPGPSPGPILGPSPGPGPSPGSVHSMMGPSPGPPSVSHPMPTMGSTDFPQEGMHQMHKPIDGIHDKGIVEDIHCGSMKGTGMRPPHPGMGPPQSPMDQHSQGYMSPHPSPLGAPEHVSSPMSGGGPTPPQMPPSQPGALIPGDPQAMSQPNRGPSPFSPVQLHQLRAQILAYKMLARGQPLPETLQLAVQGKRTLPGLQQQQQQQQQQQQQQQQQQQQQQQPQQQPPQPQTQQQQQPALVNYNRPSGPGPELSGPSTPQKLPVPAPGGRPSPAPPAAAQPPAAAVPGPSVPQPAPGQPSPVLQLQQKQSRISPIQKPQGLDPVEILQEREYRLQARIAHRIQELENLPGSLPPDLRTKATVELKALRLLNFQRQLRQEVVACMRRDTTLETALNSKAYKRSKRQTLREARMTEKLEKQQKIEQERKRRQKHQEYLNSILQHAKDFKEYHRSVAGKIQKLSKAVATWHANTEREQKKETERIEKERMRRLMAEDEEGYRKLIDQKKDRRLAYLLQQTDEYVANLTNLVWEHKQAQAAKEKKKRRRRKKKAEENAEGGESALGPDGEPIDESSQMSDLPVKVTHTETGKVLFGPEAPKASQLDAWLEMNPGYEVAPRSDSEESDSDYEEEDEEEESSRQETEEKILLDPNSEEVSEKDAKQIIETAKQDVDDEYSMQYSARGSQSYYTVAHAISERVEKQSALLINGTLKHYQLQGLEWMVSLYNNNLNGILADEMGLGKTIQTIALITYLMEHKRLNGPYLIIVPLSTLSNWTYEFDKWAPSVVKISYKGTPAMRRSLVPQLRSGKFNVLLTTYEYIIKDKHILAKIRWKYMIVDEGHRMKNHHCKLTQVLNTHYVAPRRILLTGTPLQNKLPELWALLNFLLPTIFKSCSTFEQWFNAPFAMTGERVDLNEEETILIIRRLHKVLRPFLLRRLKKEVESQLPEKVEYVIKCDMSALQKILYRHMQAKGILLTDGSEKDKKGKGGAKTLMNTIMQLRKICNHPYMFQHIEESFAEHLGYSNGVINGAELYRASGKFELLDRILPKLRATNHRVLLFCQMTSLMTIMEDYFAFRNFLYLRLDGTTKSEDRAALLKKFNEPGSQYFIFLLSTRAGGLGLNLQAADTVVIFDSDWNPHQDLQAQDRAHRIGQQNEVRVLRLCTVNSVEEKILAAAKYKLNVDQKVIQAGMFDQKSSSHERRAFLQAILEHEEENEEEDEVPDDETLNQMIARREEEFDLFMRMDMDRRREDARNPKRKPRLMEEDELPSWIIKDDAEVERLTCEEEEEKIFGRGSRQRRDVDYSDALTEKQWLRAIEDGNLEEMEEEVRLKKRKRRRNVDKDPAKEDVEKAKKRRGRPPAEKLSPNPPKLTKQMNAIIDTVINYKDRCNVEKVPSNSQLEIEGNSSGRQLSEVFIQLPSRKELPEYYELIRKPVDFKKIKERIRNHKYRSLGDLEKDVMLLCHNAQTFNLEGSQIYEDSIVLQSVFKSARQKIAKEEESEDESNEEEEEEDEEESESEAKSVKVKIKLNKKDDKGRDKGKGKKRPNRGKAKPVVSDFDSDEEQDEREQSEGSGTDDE
Chain of VCB: PROTAC: SMARCA4^BD ternary complex (P40337 54-213): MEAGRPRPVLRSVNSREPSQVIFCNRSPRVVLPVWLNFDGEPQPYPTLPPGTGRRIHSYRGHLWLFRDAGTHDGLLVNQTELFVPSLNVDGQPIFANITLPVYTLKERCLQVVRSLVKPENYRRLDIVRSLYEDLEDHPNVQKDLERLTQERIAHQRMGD
Chain of VCB: PROTAC: SMARCA4^BD ternary complex (Q15369 17-112 partner limits assumed): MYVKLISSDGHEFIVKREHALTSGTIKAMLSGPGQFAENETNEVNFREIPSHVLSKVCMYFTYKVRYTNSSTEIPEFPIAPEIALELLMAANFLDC
Chain of VCB: PROTAC: SMARCA4^BD ternary complex (Q15370 1-104 partner limits assumed): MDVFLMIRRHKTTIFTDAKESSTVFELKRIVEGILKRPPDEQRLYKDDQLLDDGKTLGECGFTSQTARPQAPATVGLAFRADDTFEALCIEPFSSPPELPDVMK
Chain of VCB: PROTAC: SMARCA4^BD ternary complex (P51532 1448-1569): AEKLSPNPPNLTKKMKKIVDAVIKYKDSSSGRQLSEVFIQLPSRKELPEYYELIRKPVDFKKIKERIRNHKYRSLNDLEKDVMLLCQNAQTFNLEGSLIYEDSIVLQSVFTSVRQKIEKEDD

Which results are given for `Cc1ncsc1-c1ccc(C(CCC(C)CCN2CCC(c3ccc4c(c3)n(C3CCCC3)c3nc(=O)c5c(Br)cccc5n43)CC2)NC(=O)C2CC(O)CN2C(=O)C(NC(=O)C2(F)CC2)C(C)(C)C)cc1` (stereo not shown) [ACBI2]?
DC50 (SMARCA2; NCI-H1568 (4 h), mean ± SD, read-out: SMARCA2 DC50): 13 ± 14 nM; Bottom (% protein remaining, four-parameter fit) (SMARCA2; NCI-H1568, 4h): 6.286%; HillSlope (protein remaining) (SMARCA2; NCI-H1568, 4h): -1.738; LogEC50 (protein remaining) (SMARCA2; NCI-H1568, 4h): -8.191 log10(mol/l); Top (% protein remaining, four-parameter fit) (SMARCA2; NCI-H1568, 4h): 87.56%; % protein remaining (SMARCA2; NCI-H1568, 4h, conc 1.00001e-10 mol/l): 96.6234% and 94.5884%; % protein remaining (SMARCA2; NCI-H1568, 4h, conc 1.52416e-10 mol/l): 71.8933%; % protein remaining (SMARCA2; NCI-H1568, 4h, conc 3.1623e-10 mol/l): 72.7669% and 75.3978%; % protein remaining (SMARCA2; NCI-H1568, 4h, conc 4.57247e-10 mol/l): 96.5512%; % protein remaining (SMARCA2; NCI-H1568, 4h, conc 1.00001e-9 mol/l): 90.5385% and 93.373%; % protein remaining (SMARCA2; NCI-H1568, 4h, conc 1.37174e-9 mol/l): 95.3256%; % protein remaining (SMARCA2; NCI-H1568, 4h, conc 3.1623e-9 mol/l): 36.986%; % protein remaining (SMARCA2; NCI-H1568, 4h, conc 4.11523e-9 mol/l): 94.3111%; % protein remaining (SMARCA2; NCI-H1568, 4h, conc 1.00001e-8 mol/l): 19.3906% and 27.9502%; % protein remaining (SMARCA2; NCI-H1568, 4h, conc 1.23457e-8 mol/l): 37.9279%; % protein remaining (SMARCA2; NCI-H1568, 4h, conc 3.1623e-8 mol/l): 8.319% and 13.4554%; % protein remaining (SMARCA2; NCI-H1568, 4h, conc 3.7037e-8 mol/l): 11.4262%; % protein remaining (SMARCA2; NCI-H1568, 4h, conc 1.11111e-7 mol/l): 8.194%; % protein remaining (SMARCA2; NCI-H1568, 4h, conc 3.1623e-7 mol/l): 2.032% and 3.543%; % protein remaining (SMARCA2; NCI-H1568, 4h, conc 3.33333e-7 mol/l): 6.383%; % protein remaining (SMARCA2; NCI-H1568, 4h, conc 1e-6 mol/l): 9.793%; % protein remaining (SMARCA2; NCI-H1568, 4h, conc 1.00001e-6 mol/l): 2.382% and 3.308%; % protein remaining (SMARCA2; NCI-H1568, 4h, conc 3.1623e-6 mol/l): 2.029% and 3.947%; DC50 (SMARCA2; NCI-H1568, 4h, individual replicates, read-out: NCI-H1568 (4h) SMARCA2 DC50): 4.72 nM and 32.5 nM and 13 nM; DC50 (SMARCA2; NCI-H1568, 4h, read-out: EC50 (protein remaining)): 6.44 nM; Bottom (% protein remaining, four-parameter fit) (SMARCA2; NCI-H1568, 8h): 6.315%; HillSlope (protein remaining) (SMARCA2; NCI-H1568, 8h): -1.161; LogEC50 (protein remaining) (SMARCA2; NCI-H1568, 8h): -8.44 log10(mol/l); Top (% protein remaining, four-parameter fit) (SMARCA2; NCI-H1568, 8h): 119.8%; % protein remaining (SMARCA2; NCI-H1568, 8h, conc 4.57247e-10 mol/l): 112.24%; % protein remaining (SMARCA2; NCI-H1568, 8h, conc 1.37174e-9 mol/l): 87.7845%; % protein remaining (SMARCA2; NCI-H1568, 8h, conc 4.11523e-9 mol/l): 63.6536%; % protein remaining (SMARCA2; NCI-H1568, 8h, conc 1.23457e-8 mol/l): 24.8248%; % protein remaining (SMARCA2; NCI-H1568, 8h, conc 3.7037e-8 mol/l): 13.998%; % protein remaining (SMARCA2; NCI-H1568, 8h, conc 1.11111e-7 mol/l): 8.2%; % protein remaining (SMARCA2; NCI-H1568, 8h, conc 3.33333e-7 mol/l): 6.313%; % protein remaining (SMARCA2; NCI-H1568, 8h, conc 1e-6 mol/l): 7.6382%; % protein remaining (SMARCA2; NCI-H1568, 8h, conc 3e-6 mol/l): 6.726%; DC50 (SMARCA2; NCI-H1568, 8h, read-out: EC50 (protein remaining)): 3.63 nM; Bottom (% protein remaining, four-parameter fit) (SMARCA2; NCI-H1568, 18h): 2.272%; HillSlope (protein remaining) (SMARCA2; NCI-H1568, 18h): -0.7655; LogEC50 (protein remaining) (SMARCA2; NCI-H1568, 18h): -9.556 log10(mol/l); Top (% protein remaining, four-parameter fit) (SMARCA2; NCI-H1568, 18h): 215.6%; % protein remaining (SMARCA2; NCI-H1568, 18h, conc 1.52416e-10 mol/l): 134.073%; % protein remaining (SMARCA2; NCI-H1568, 18h, conc 4.57247e-10 mol/l): 84.9656%; % protein remaining (SMARCA2; NCI-H1568, 18h, conc 1.37174e-9 mol/l): 57.0296%; % protein remaining (SMARCA2; NCI-H1568, 18h, conc 4.11523e-9 mol/l): 23.442%; % protein remaining (SMARCA2; NCI-H1568, 18h, conc 1.23457e-8 mol/l): 12.5025%; % protein remaining (SMARCA2; NCI-H1568, 18h, conc 3.7037e-8 mol/l): 5.834%; % protein remaining (SMARCA2; NCI-H1568, 18h, conc 1.11111e-7 mol/l): 3.6967%; % protein remaining (SMARCA2; NCI-H1568, 18h, conc 3.33333e-7 mol/l): 2.8858%; % protein remaining (SMARCA2; NCI-H1568, 18h, conc 1e-6 mol/l): 3.302%; % protein remaining (SMARCA2; NCI-H1568, 18h, conc 3e-6 mol/l): 4.787%; DC50 (SMARCA2; NCI-H1568, 18h, read-out: EC50 (protein remaining)): 0.278 nM; Bottom (best-fit value, % protein remaining) (SMARCA2; [2]): 20.4%; HillSlope (SMARCA2; [2]): -1.475; LogEC50 (SMARCA2; SK-N-AS_SM2, log10 of concentration in mol/l): -7.468; DC50 (SMARCA2; SK-N-AS_SM2, protein degradation, four-parameter fit, read-out: EC50 (the source's name)): 34 nM; solubility at 24 h (Solubility testing; pH 4.5, aqueous buffer, pH 4.5, read-out: Solubility pH 4.5): < 1 µg/mL; solubility at 24 h (Solubility testing; pH 6.8, aqueous buffer, pH 6.8, read-out: Solubility pH 6.8): < 1 µg/mL; Kd ([1]; ternary complex with SMARCA4BD, mean ± SD): 24 ± 4 nM; Kd ([1]; ternary, individual replicates): 21.9 nM and 22.7 nM and 28.4 nM; alpha ([1]; cooperativity, SMARCA4, ratio of KD values measured in the same run): 1.4; PPB fu 10% Human (Plasma protein binding; 10% human): < 0.054%; PPB fu 10% Rat (Plasma protein binding; 10% rat): < 0.053% and < 0.048%; fraction unbound at 5 h, 3 µmol/L (Plasma protein binding; bovine, 10% calf plasma dilution in PBS, 10% calf, fraction unbound, read-out: PPB fu 10% Calf): 0.0035; fraction unbound at 5 h, 3 µmol/L (Plasma protein binding; bovine, 10% plasma (plasma dilution in PBS), 10% calf, read-out: PPB fu 10% Calf): 0.00349; fraction unbound at 5 h, 3 µmol/L (Plasma protein binding; human, 10% plasma (plasma dilution in PBS), 10% human, read-out: PPB fu 10% Human): < 0.00045; fraction unbound at 5 h, 3 µmol/L (Plasma protein binding; human, plasma, human, fraction unbound, read-out: PPB fu Human): < 0.0005; fraction unbound at 5 h, 3 µmol/L (Plasma protein binding; mouse, 10% plasma (plasma dilution in PBS), 10% mouse, read-out: PPB fu 10% Mouse): < 0.00051; fraction unbound at 5 h, 3 µmol/L (Plasma protein binding; mouse, plasma, mouse, fraction unbound, read-out: PPB fu Mouse): < 0.0005; fraction unbound at 5 h, 3 µmol/L (Plasma protein binding; rat, 10% plasma (plasma dilution in PBS), 10% rat, read-out: PPB fu 10% Rat): < 0.00054; fraction unbound at 5 h, 3 µmol/L (Plasma protein binding; rat, plasma, rat, fraction unbound, read-out: PPB fu Rat): < 0.0005

From PMC9551036, “A selective and orally bioavailable VHL-recruiting PROTAC achieves SMARCA2 degradation in vivo” (Nature Communications, 2022)
